Measurements as given in patent US20250206745A1, “PYRROLOPYRIDAZINE DERIVATIVES AND RELATED USES” (NodThera Limited, priority 2023, published 2025).
Where a name gives a salt, the structure may show the parent alone.

Experiments:
[1] = system: IL-1β release upon NLRP3 activation in peripheral blood mononuclear cells (PBMC); experiment: PBMC IC50 Determination Assay; assay type: cell-based; details: Homo sapiens; inhibition of IL-1β release; PBMC primed with LPS, stimulated with ATP or nigericin; ELISA or HTRF
Protocol: The compounds of the present disclosure were tested for their inhibitory activity against IL-1β release upon NLRP3 activation in peripheral blood mononuclear cells (PBMC).
Protocol A. PBMC were isolated from buffy coats by density gradient centrifugation on Histopaque-1077 (Sigma, cat no. 10771). Isolated cells were seeded into the wells of a 96-well plate and incubated for 3 h with lipopolysaccharide (LPS). Following medium exchange, the compounds of the present disclosure were added (a single compound per well) and the cells were incubated for 30 min. Next, the cells were stimulated either with ATP (5 mM) or nigericin (10 μM) for 1 h and the cell culture media from the wells were collected for further analysis.
The release of IL-1β into the media was determined by a quantitative detection of IL-1β in the media using an IL-1β enzyme-linked immunosorbent assay (ELISA) Ready-SET-Go!, eBioscience cat. No. 88-7261-88. Briefly, in a first step, high affinity binding plates (Corning, Costar 9018 or NUNC Maxisorp Cat No. 44-2404) were coated overnight at 4° C. with specific capture antibody included in the kit (anti-human IL-1β ref. 14-7018-68). Subsequently, plates were blocked with blocking buffer for 1 h at room temperature (rt) and after washing with a buffer (PBS with 0.05% Tween-20) incubated with protein standard and culture media. After 2 h of incubation at rt, plates were washed and incubated with biotinylated detection antibody included in the kit (anti-human IL-1β Biotin ref. 33-7110-68) for 1 h at rt. Plates were washed and incubated with HRP-streptavidin for 30 min at rt and washed again. The signal was developed after addition of 3,3′,5,5′-tetramethylbenzidine-peroxidase (TMB) until colour appeared and the reaction was stopped by 2 M H2SO4. A microplate spectrophotometer (BioTek) was used to detect signals with 450 nm. The detection range of IL-1β ELISA was […].
Protocol B. PBMC were isolated from buffy coats by density gradient centrifugation on Histopaque-1077 (Sigma, cat no. 10771). Isolated cells were seeded into the wells (280,000 cells/well) of a 96-well plate and incubated for 3 h with lipopolysaccharide (LPS, 1 μg/mL diluted 1000× from a 1 mg/mL stock solution). The compounds of the present disclosure were added (a single compound per well) and the cells were incubated for 30 min. Next, the cells were stimulated with ATP (5 mM final concentration diluted 20× from a 100 mM stock solution) for 1 h and the cell culture media from the wells were collected for further analysis.
The release of IL-1β into the media was determined by quantitative detection of IL-1β in the media using HTRF®, CisBio cat. No. 62HIL1BPEH. Briefly, cell culture supernatant were dispensed directly into the assay plate containing antibodies labelled with the HTRF® donor and acceptor. A microplate spectrophotometer (BMG) was used to detect signals at 655 nm and 620 nm. The detection range of IL-1β HTRF® was 39-6500 pg/mL.

[2] = system: IL-1β release upon NLRP3 activation in phorbol 12-myristate 13-acetate (PMA)-differentiated THP-1 cells; experiment: THP-1 IC50 Determination Assay; assay type: cell-based; details: Homo sapiens, inhibition of IL-1β release, LPS, nigericin, ELISA
Protocol: The compounds of the present disclosure were tested for their inhibitory activity against IL-1β release upon NLRP3 activation in phorbol 12-myristate 13-acetate (PMA)-differentiated THP-1 cells.
THP-1 cells stored in liquid nitrogen were thawed in a 37° C. water bath. The cells were added into complete RPMI 1640 medium (FBS (56 mL), 100× Penicillin-Streptomycin (5.6 mL) and 0.05 mM 2-Mercaptoethanol in RPMI 1640 Medium (500 mL)) and centrifuged for 5 min at 1000 rpm. The supernatant was discarded and the cells resuspended into new cell culture medium for culturing. Cells were cultured in cell culture medium and passaged every 3-4 days to maintain cell density between 4×10^5 and 1.5×10^6 cells/mL. The cells were diluted to 0.8×10^6 cells/mL and grown in a T150 flask with PMA (final concentration 5 ng/mL). The flask was incubated in a 37° C. incubator with a humidified atmosphere of 5% CO2 for −40 hours. After −40 hours of PMA differentiation, the flask was washed with DPBS. Cells were digested with Trypsin LE for about 5 min at room temperature, and digestion was terminated using complete RPMI 1640 medium. Cells were centrifuged and resuspended (1000 rpm, 3 min). The supernatant was discarded and cells washed with DPBS, centrifuged and resuspended cells (1000 rpm, 5 min). Cells were plated at 30,000 cells/well in a 384-well PP plate and treated with 25 ng/mL LPS solution diluted in serum-free medium (45 μL). The plate was incubated in a 37° C. incubator with a humidified atmosphere of 5% CO2 for 2 hours. Compounds (from 10 mM DMSO solution) were dispensed and serially diluted by 1:3 eight times, with final 0.5% DMSO concentration. NLRP3 inflammasome was activated with nigericin (5 μL), the plate was centrifuged (1000 rpm, 30 s) and incubated in a 37° C. incubator with a humidified atmosphere of […] for 2 hours. 35 μL/well of supernatant was removed and IL-1β levels determined by ELISA assay (Mabtech 3416-1H-20) according to the manufacturer's instructions.

Cc1cc(Cl)cc(O)c1-c1cc2ccn(CC3CCN(CC(F)F)CC3)c2nn1 [Compound 10, 5-Chloro-2-(7-{[1-(2,2-difluoroethyl)piperidin-4-yl]methyl}-7H-pyrrolo[2,3-c]pyridazin-3-yl)-3-methylphenol hydrochloride]
IC50 [1]: 0.1 to 0.3 µM | IC50 [2]: 0.1 to 0.3 µM

Cc1cc(Cl)cc(O)c1-c1cc2ccn(CC3CCN(C)C(=O)C3)c2nn1 (stereo not shown) [Compound 11, 4-{[3-(4-Chloro-2-hydroxy-6-methylphenyl)-7H-pyrrolo[2,3-c]pyridazin-7-yl]methyl}-1-methylpiperidin-2-one]
IC50 [1]: 0.1 to 0.3 µM | IC50 [2]: 0.1 to 0.3 µM

Cc1cc(Cl)cc(O)c1-c1cc2ccn(CCN3CCOCC3)c2nn1 [Compound 12, 5-Chloro-3-methyl-2-{7-[2-(morpholin-4-yl)ethyl]-7H-pyrrolo[2,3-c]pyridazin-3-yl}phenol hydrochloride]
IC50 [1]: 0.3 to 1 µM | IC50 [2]: 0.1 to 0.3 µM

Cc1cc(Cl)cc(O)c1-c1cc2ccn(CCN3CCN(C)CC3)c2nn1 [Compound 13, 5-Chloro-3-methyl-2-{7-[2-(4-methylpiperazin-1-yl)ethyl]-7H-pyrrolo[2,3-c]pyridazin-3-yl}phenol dihydrochloride]
IC50 [1]: 0.3 to 1 µM | IC50 [2]: 0.3 to 1 µM

Cc1cc(Cl)cc(O)c1-c1cc2ccn(CC3CCCCN3C)c2nn1 (stereo not shown) [Compound 14, 5-Chloro-3-methyl-2-{7-[(1-methylpiperidin-2-yl)methyl]-7H-pyrrolo[2,3-c]pyridazin-3-yl}phenol]
IC50 [1]: 0.1 to 0.3 µM | IC50 [2]: 0.1 to 0.3 µM

Cc1cc(Cl)cc(O)c1-c1cc2ccn(CC3CCN(C4COC4)CC3)c2nn1 [Compound 15, 5-Chloro-3-methyl-2-(7-{[1-(oxetan-3-yl)piperidin-4-yl]methyl}-7H-pyrrolo[2,3-c]pyridazin-3-yl)phenol]
IC50 [1]: 0.1 to 0.3 µM | IC50 [2]: 0.1 to 0.3 µM

Cc1cc(Cl)cc(O)c1-c1cc2ccn(CC3CCOC3)c2nn1 (stereo not shown) [Compound 16, 5-Chloro-3-methyl-2-{7-[(oxolan-3-yl)methyl]-7H-pyrrolo[2,3-c]pyridazin-3-yl}phenol]
IC50 [1]: 0.1 to 0.3 µM | IC50 [2]: 0.1 to 0.3 µM

COC(=O)N1CCC(Cn2ccc3cc(-c4c(C)cc(Cl)cc4O)nnc32)CC1 [Compound 17, Methyl 4-{[3-(4-chloro-2-hydroxy-6-methylphenyl)-7H-pyrrolo[2,3-c]pyridazin-7-yl]methyl}piperidine-1-carboxylate]
IC50 [1]: 0.1 to 0.3 µM | IC50 [2]: 0.1 to 0.3 µM

COCCN1CCC(Cn2ccc3cc(-c4c(C)cc(Cl)cc4O)nnc32)CC1 [Compound 18, 5-Chloro-2-(7-{[1-(2-methoxyethyl)piperidin-4-yl]methyl}-7H-pyrrolo[2,3-c]pyridazin-3-yl)-3-methylphenol]
IC50 [1]: 0.1 to 0.3 µM | IC50 [2]: 0.1 to 0.3 µM

CNC(=O)Cn1ccc2cc(-c3c(C)cc(Cl)cc3O)nnc21 [Compound 19, 2-[3-(4-Chloro-2-hydroxy-6-methylphenyl)-7H-pyrrolo[2,3-c]pyridazin-7-yl]-N-methylacetamide]
IC50 [1]: 0.3 to 1 µM | IC50 [2]: 0.3 to 1 µM

CNC(=O)CCn1ccc2cc(-c3c(C)cc(Cl)cc3O)nnc21 [Compound 20, 3-[3-(4-Chloro-2-hydroxy-6-methylphenyl)-7H-pyrrolo[2,3-c]pyridazin-7-yl]-N-methylpropanamide]
IC50 [1]: 0.3 to 1 µM | IC50 [2]: 0.3 to 1 µM

COCCn1ccc2cc(-c3c(C)cc(Cl)cc3O)nnc21 [Compound 21, 5-Chloro-2-[7-(2-methoxyethyl)-7H-pyrrolo[2,3-c]pyridazin-3-yl]-3-methylphenol]
IC50 [1]: 0.1 to 0.3 µM | IC50 [2]: 0.3 to 1 µM

Cc1cc(Cl)cc(O)c1-c1cc2ccn(CCN(C)C)c2nn1 [Compound 22, 5-Chloro-2-{7-[2-(dimethylamino)ethyl]-7H-pyrrolo[2,3-c]pyridazin-3-yl}-3-methylphenol hydrochloride]
IC50 [1]: 0.3 to 1 µM | IC50 [2]: 0.3 to 1 µM

COCCCn1ccc2cc(-c3c(C)cc(Cl)cc3O)nnc21 [Compound 23, 5-Chloro-2-[7-(3-methoxypropyl)-7H-pyrrolo[2,3-c]pyridazin-3-yl]-3-methylphenol]
IC50 [1]: 0.3 to 1 µM | IC50 [2]: 0.3 to 1 µM

Cc1cc(Cl)cc(O)c1-c1cc2ccn(CC3CCCCO3)c2nn1 (stereo not shown) [Compound 25, 5-Chloro-3-methyl-2-{7-[(oxan-2-yl)methyl]-7H-pyrrolo[2,3-c]pyridazin-3-yl}phenol]
IC50 [1]: 0.1 to 0.3 µM | IC50 [2]: 0.1 to 0.3 µM

Cc1cc(Cl)cc(O)c1-c1cc2ccn(CC3CCN(CC#N)CC3)c2nn1 [Compound 26, 2-(4-{[3-(4-Chloro-2-hydroxy-6-methylphenyl)-7H-pyrrolo[2,3-c]pyridazin-7-yl]methyl}piperidin-1-yl)acetonitrile]
IC50 [1]: 0.3 to 1 µM | IC50 [2]: 0.3 to 1 µM

Cc1cc(Cl)cc(O)c1-c1cc2ccn(CC3(F)CCN(C)CC3)c2nn1 [Compound 27, 5-Chloro-2-{7-[(4-fluoro-1-methylpiperidin-4-yl)methyl]-7H-pyrrolo[2,3-c]pyridazin-3-yl}-3-methylphenol hydrochloride]
IC50 [1]: 0.03 to 0.1 µM | IC50 [2]: 0.1 to 0.3 µM

Cc1cc(Cl)cc(O)c1-c1cc2ccn(CC3CN(C)C3)c2nn1 [Compound 28, 5-Chloro-3-methyl-2-{7-[(1-methylazetidin-3-yl)methyl]-7H-pyrrolo[2,3-c]pyridazin-3-yl}phenol hydrochloride]
IC50 [1]: 0.3 to 1 µM | IC50 [2]: 0.3 to 1 µM

Cc1cc(Cl)cc(O)c1-c1cc2ccn(CCCN(C)C)c2nn1 [Compound 29, 5-Chloro-2-{7-[3-(dimethylamino)propyl]-7H-pyrrolo[2,3-c]pyridazin-3-yl}-3-methylphenol hydrochloride]
IC50 [1]: 1 to 3 µM | IC50 [2]: 1 to 3 µM

Cc1cc(Cl)cc(O)c1-c1cc2ccn(CC(=O)N3CCCC3)c2nn1 [Compound 30, 2-[3-(4-Chloro-2-hydroxy-6-methylphenyl)-7H-pyrrolo[2,3-c]pyridazin-7-yl]-1-(pyrrolidin-1-yl)ethan-1-one]
IC50 [1]: 0.3 to 1 µM | IC50 [2]: 0.3 to 1 µM

Cc1cc(Cl)cc(O)c1-c1cc2ccn(CC3CCN(S(C)(=O)=O)CC3)c2nn1 [Compound 31, 5-Chloro-2-{7-[(1-methanesulfonylpiperidin-4-yl)methyl]-7H-pyrrolo[2,3-c]pyridazin-3-yl}-3-methylphenol]
IC50 [1]: 0.1 to 0.3 µM | IC50 [2]: 0.1 to 0.3 µM

Cc1cc(Cl)cc(O)c1-c1cc2ccn(CC(=O)N(C)C)c2nn1 [Compound 32, 2-[3-(4-Chloro-2-hydroxy-6-methylphenyl)-7H-pyrrolo[2,3-c]pyridazin-7-yl]-N,N-dimethylacetamide]
IC50 [1]: 0.1 to 0.3 µM | IC50 [2]: 0.1 to 0.3 µM

Cc1cc(Cl)cc(O)c1-c1cc2ccn(CCN3CCCC(F)C3)c2nn1 (stereo not shown) [Compound 33, 5-Chloro-2-{7-[2-(3-fluoropiperidin-1-yl)ethyl]-7H-pyrrolo[2,3-c]pyridazin-3-yl}-3-methylphenol hydrochloride]
IC50 [1]: 0.03 to 0.1 µM | IC50 [2]: 0.3 to 1 µM
